Measured values: patent publication US20250205265A1, “ASPERULOSIDE AS AN AGENT FOR IMPROVING VASCULAR AND METABOLIC FUNCTION IN OBESITY: ROLE OF NRF2 ACTIVATION” (The Chinese University of Hong Kong, priority 2023, published 2025)
Entries after “also recorded” stand apart in the source; their conditions may differ.

Columns and labels:
VCAM-1 and ICAM-1 = assay: Endothelial activation (VCAM-1 and ICAM-1) in endothelial cells; type: cell-based
Experimental: (§1) After induction of obesity in C57BL/6 male mice fed with high fat diet for twelve weeks, they were treated daily with ASP (50 mg/kg) via oral gavage for seven weeks in vivo study. C57BL/6 mice aortae were used for ex vivo study and endothelial cells were used for in vitro study. Vascular function was determined by wire myograph. DHE and MitoSOX staining were used to detect ROS levels. QPCR, aortic en-face immunofluorescence staining, and Western blotting were used to analyze mRNA and protein expressions. Small interfering (si)RNA of Nrf2 and HO-1, inhibitors of Nrf2 (ML385, Cat. No.: HY-100523) and HO-1 (OB-24, HY-118487) were used to elucidate the mechanistic pathway of ASP's action.
(§2) After induction of obesity in C57BL/6 male mice fed with the high-fat diet for twelve weeks, they were treated daily with ASP (50 mg/kg) via oral gavage for seven weeks in vivo study. C57BL/6 mice aortae were used for ex vivo studies. Endothelial cells, HepG2 and primary adipocytes were used for in vitro studies. Vascular function was determined by wire myograph. H&E staining was employed for histological examination. Oil Red O staining was used to determine lipid droplets in tissues and cells. DHE and MitoSOX staining were used to detect ROS levels. […] ARE binding activity was determined by Dual luciferase reporter assay. […]

obese mice livers [1] = assay: ATP levels in obese mice livers; type: in vivo
Experimental: (§3) After induction of obesity in C57BL/6 male mice fed with the high-fat diet for twelve weeks, they were treated daily with ASP (50 mg/kg) via oral gavage for seven weeks in vivo study. C57BL/6 mice aortae were used for ex vivo studies. Endothelial cells, HepG2 and primary adipocytes were used for in vitro studies. Vascular function was determined by wire myograph. H&E staining was employed for histological examination. Oil Red O staining was used to determine lipid droplets in tissues and cells. DHE and MitoSOX staining were used to detect ROS levels. QPCR, aortic en-face immunofluorescence staining, and Western blotting were used to analyze mRNA and protein expressions. ARE binding activity was determined by Dual luciferase reporter assay. Small interfering (si)RNA of Nrf2 and HO-1, inhibitors of Nrf2 (ML385, Cat. No.: HY-100523) and HO-1 (OB-24, HY-118487) were used to elucidate the mechanistic pathway of ASP's action.

FAS, ACC2, SREBP1C, HSL = assay: Real-time PCR of lipid metabolism genes in PA-treated HepG2 cells; type: cell-based
Experimental: as §3

[2] = tested on: high-fat diet (HFD)-fed mice; assay: Vascular function by wire myograph, aortas of obese mice; type: in vivo; conditions: ASP 50 mg/kg oral gavage daily for seven weeks
Experimental: as §1, §2

primary adipocytes = assay: Real-time PCR in primary adipocytes; type: cell-based, mice
Experimental: Primary adipocytes were treated with ASP overnight. […] Data represent means±SEM of 4 mice. P values were determined using One-way ANOVA. *p<0.05.
(§4) Primary adipocytes were treated with 40 μmol/L ASP (FIG. 22A) or different doses of ASP (FIG. 22B) for 24 hours. […] Scale bar, 50 μm (FIG. 22B). Data represent means±SEM of 4 experiments. P values were determined using One-way ANOVA. *p<0.05.
as §3

endothelial cells = assay: ROS level in endothelial cells; type: cell-based
Experimental: as §1, §2

[3] = tested on: lipid droplets in obese mice livers; assay: H&E and Oil Red O staining of obese mice livers; type: in vivo; conditions: ASP 50 mg/kg oral gavage daily for seven weeks
Experimental: as §3

Nrf2 [4] = assay: Nrf2 nuclear translocation and protein level in obese mice livers; type: in vivo
Experimental: as §3

HepG2 cells = assay: Oil Red O staining of PA-treated HepG2 cells; type: cell-based; conditions: Nrf2-inhibited HepG2 cells
Experimental: as §3

ICAM-1 = assay: Real-time PCR of ICAM-1 in aortas of obese mice; type: in vivo
Experimental: as §1, §2

Nrf2/ARE = assay: Dual-luciferase assay of ARE binding in PA-treated HepG2 cells; type: cell-based
Experimental: as §3

Nrf2 [5] = assay: Nrf2 nuclear translocation in endothelial cells; type: cell-based
Experimental: as §1, §3

SDHC = assay: Real-time PCR of SDHC in PA-treated HepG2 cells; type: cell-based; conditions: PA-treated HepG2 cells when Nrf2 is inhibited
Experimental: as §3

Nrf2 [6] = assay: Real-time PCR of Nrf2 in obese mice aortas; type: in vivo
Experimental: as §1, §2

Npra, Hsl, Fas, Acc2 = assay: Real-time PCR of lipid metabolism genes in obese mice livers; type: in vivo
Experimental: as §3

HO-1 [7] = assay: Real-time PCR of HO-1 in obese mice aortas; type: in vivo
Experimental: as §1, §2

Nrf2 [8] = assay: Nrf2 nuclear translocation in primary adipocytes (immunofluorescence); type: cell-based, mice; conditions: 40 μmol/L ASP for 24 hours
Experimental: as §4, §3

[9] = tested on: Cpt1α, Cpt1β, mitochondrial complex, Pgc1α; assay: Real-time PCR of mitochondrial genes in obese mice livers; type: in vivo
Experimental: as §3

obese mice livers [10] = assay: DHE staining of obese mice livers; type: in vivo
Experimental: as §3

[11] = tested on: HO-1, SIRT1, SIRT6, and SOD2; assay: Real-time PCR of Nrf2 downstream genes in PA-treated HepG2 cells; type: cell-based
Experimental: as §3

Nrf2 protein = target: T1, Nrf2 protein (Mus musculus, UniProt Q60795); assay: CETSA in endothelial cells; type: binding; conditions: ASP 40 μmol/L
T1 construct: endogenous in cells
T1 sequence (Q60795 whole entry): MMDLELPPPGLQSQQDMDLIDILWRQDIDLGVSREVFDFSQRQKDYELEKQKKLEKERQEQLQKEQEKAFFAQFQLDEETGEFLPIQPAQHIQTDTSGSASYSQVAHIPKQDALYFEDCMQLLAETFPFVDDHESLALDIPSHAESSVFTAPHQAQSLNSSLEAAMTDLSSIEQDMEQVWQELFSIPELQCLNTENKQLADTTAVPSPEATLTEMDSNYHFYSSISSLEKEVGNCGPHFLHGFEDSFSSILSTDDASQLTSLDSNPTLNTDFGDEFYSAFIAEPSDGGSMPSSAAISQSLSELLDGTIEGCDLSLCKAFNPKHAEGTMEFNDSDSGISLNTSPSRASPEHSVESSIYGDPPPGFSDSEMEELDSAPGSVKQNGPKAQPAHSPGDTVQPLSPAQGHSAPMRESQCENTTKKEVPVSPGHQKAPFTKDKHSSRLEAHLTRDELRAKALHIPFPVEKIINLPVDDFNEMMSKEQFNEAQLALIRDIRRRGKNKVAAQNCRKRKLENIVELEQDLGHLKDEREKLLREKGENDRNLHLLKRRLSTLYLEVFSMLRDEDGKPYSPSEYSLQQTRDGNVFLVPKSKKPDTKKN
Experimental: The Nrf2 protein expression was normalized to total protein. P values were determined using One-way ANOVA. *p<0.05. Data represent means±SEM of 3 experiments.

HO-1 [12] = assay: Aortic en-face immunofluorescence staining of HO-1; set-up: species or system mice
Experimental: as §1, §3

C57BL/6 mice aortae = assay: Ex vivo wire myograph, IL-1β-impaired EDRs in mouse aortas; conditions: for EDRs: IL-1β
Experimental: as §1, §3

ROS = assay: Ex vivo DHE staining of ROS in IL-1β-treated aortas; set-up: species or system mice
Experimental: as §1, §3

[13] = obese mice aortae, ASP 50 mg/kg oral gavage daily for seven weeks
[14] = 250 μmol/L PA-treated HepG2 cells for 16 hours
[15] = obese mice aortas, real-time PCR

Question: How did the endothelial activation (VCAM-1 and ICAM-1; HO-1-silencing (HO-1-siRNA transfected) endothelial cells) turn out when Asperuloside was run?
Answer: fails to decrease ROS level (FIG. 2E) or inhibit endothelial activation; also recorded: failed to prevent endothelial dysfunction in HO-1 inhibited aortae (FIGS. 2A-2D) and HO-1-siRNA transfected endothelial cells

Question: What about the “overexpression of VCAM-1 and ICAM-1” value (VCAM-1 and ICAM-1; endothelial cells) of the same substance?
Answer: inhibits overexpression of VCAM-1 and ICAM-1

Question: What about the ATP levels (obese mice livers [1]) of the same substance?
Answer: increases ATP levels

Question: And the “mRNA levels of FAS, ACC2 and SREBP1C” value (FAS, ACC2, SREBP1C, HSL; Nrf2-inhibited HepG2 cells)?
Answer: fails to decrease its expression levels

Question: What about the “PA-stimulated overexpression of mRNA levels of FAS, ACC2 and SREBP1C” value (FAS, ACC2, SREBP1C, HSL; PA-treated HepG2 cells) of the same substance?
Answer: inhibited by ASP treatment

Question: What about the “HSL mRNA expression” value (FAS, ACC2, SREBP1C, HSL; palmitic acid, Nrf2-inhibited HepG2 cells) of the same substance?
Answer: fails to restore palmitic acid-decreased HSL mRNA expression

Question: What about the “acetylcholine-induced endothelium-dependent relaxations (EDRs)” value [2] of the same substance?
Answer: prevents HFD-induced impairment of EDRs; also recorded: significantly reversed the impairments of endothelium-dependent relaxations; also recorded: significantly improved endothelial-dependent relaxations

Question: What about the “endothelium-independent relaxations in response to sodium nitroprusside (SNP)” value [2] of the same substance?
Answer: remain similar among different groups

Question: What about the “mRNA expression levels of Nprc and Cd36” value (primary adipocytes; primary adipocytes treated with ASP overnight) of the same substance?
Answer: dose-dependently decreases mRNA expression levels of Nprc (FIG. 21A) and Cd36

Question: What about the “mRNA expression of Nrf2” value (primary adipocytes; primary adipocytes, different doses of ASP for 24 hours) of the same substance?
Answer: dose-dependently increases mRNA expression of Nrf2

Question: What about the “increase of Nrf2 mRNA expression” value (primary adipocytes; primary adipocytes, worded as embodiment, cf. FIG. 22B) of the same substance?
Answer: at least 1.2 fold

Question: And the ROS level (endothelial cells; HO-1-silencing cells)?
Answer: fails to decrease ROS level

Question: And the oxidative stress (endothelial cells; endothelial cells)?
Answer: suppresses oxidative stress

Question: What about the “accumulated lipid droplets (H&E, Oil Red O)” value [3] of the same substance?
Answer: attenuates obesity-induced accumulated lipid droplets

Question: And the “Nrf2 nuclear translocation (immunofluorescence)” value (Nrf2 [4]; obese mice livers)?
Answer: stimulates Nrf2 nuclear translocation in obese mice livers

Question: And the “Nrf2 protein level (western blot)” value (Nrf2 [4]; obese mice livers)?
Answer: increased

Question: What about the “increase of protein level of Nrf2 in the liver” value (Nrf2 [4]; worded as embodiment, cf. FIG. 13B) of the same substance?
Answer: about 3 fold

Question: What about the “PA-induced lipid accumulation (Oil Red O)” value (HepG2 cells) of the same substance?
Answer: fails to alleviate PA-induced lipid accumulation

Question: What about the “ICAM-1 mRNA expression” value (ICAM-1; aortas of obese mice, real-time PCR) of the same substance?
Answer: decreases elevated expression of VCAM-1 and ICAM-1 mRNA

Question: And the “reduction of ICAM-1 expression” value (ICAM-1; [13])?
Answer: about 2 fold

Question: And the “binding activity of ARE” value (Nrf2/ARE; [14])?
Answer: dose-dependently increases the binding activity of ARE

Question: What about the “increase of Nrf2/ARE binding” value (Nrf2/ARE; palmitic acid-impaired HepG2 cells, worded as embodiment, cf. FIG. 13E) of the same substance?
Answer: about 2 fold

Question: And the “Nrf2 nuclear expression (western blotting)” value (Nrf2 [5]; 40 μmol/L ASP, endothelial cells under basal conditions)?
Answer: increases Nrf2 nuclear expressions

Question: What about the “Nrf2 nuclear translocation (western blotting)” value (Nrf2 [5]; endothelial cells) of the same substance?
Answer: dose-dependently stimulates Nrf2 nuclear translocation; also recorded: increased nuclear Nrf2

Question: What about the “mRNA expression levels of SDHC” value (SDHC) of the same substance?
Answer: fails to upregulate the mRNA expression levels of SDHC

Question: And the “increase of Nrf2 expression” value (Nrf2 [6]; [13])?
Answer: about 1.5 fold

Question: And the “Nrf2 mRNA expression level” value (Nrf2 [6]; [15])?
Answer: increases mRNA expression level of Nrf2

Question: And the “mRNA expression levels of fatty acid synthesis-related genes, including Fas and Acc2” value (Npra, Hsl, Fas, Acc2)?
Answer: downregulated

Question: And the “mRNA expression levels of lipolysis-related genes, Npra and Hsl” value (Npra, Hsl, Fas, Acc2)?
Answer: increases the mRNA expression levels of lipolysis-related genes, Npra and Hsl

Question: And the “increase of HO-1 expression” value (HO-1 [7]; [13])?
Answer: about 1.5 fold

Question: And the “HO-1 mRNA expression level” value (HO-1 [7]; [15])?
Answer: increases mRNA expression level of Nrf2 (FIG. 1G) and HO-1

Question: What about the Nrf2 nuclear translocation (Nrf2 [8]) of the same substance?
Answer: stimulates Nrf2 nuclear translocation in adipocytes

Question: And the “mRNA expressions of Cpt1α, Cpt1β, mitochondrial complex, and Pgc1α” value [9]?
Answer: reverses these impairments

Question: What about the “oxidative stress (DHE staining)” value (obese mice livers [10]) of the same substance?
Answer: suppresses oxidative stress in obese mice livers

Question: And the “mRNA expression of HO-1, SIRT1, SIRT6, and SOD2” value [11, 14]?
Answer: dose-dependently increases mRNA expression of HO-1, SIRT1, SIRT6, and SOD2

Question: What about the “increase of HO-1 mRNA expression” value ([11]; palmitic acid-impaired HepG2 cells, cf. FIG. 13F) of the same substance?
Answer: at least 2 fold

Question: What about the “melting behavior of Nrf2 protein (CETSA)” value (Nrf2 protein; 0.3 ng/mL IL-1β-treated endothelial cells) of the same substance?
Answer: changes the melting behavior of Nrf2 protein

Question: What about the “melting behavior of Nrf2 protein (CETSA)” value (Nrf2 protein; endothelial cells under basal conditions) of the same substance?
Answer: changes the melting behavior of Nrf2 protein

Question: And the “HO-1 expression (en-face immunofluorescence)” value (HO-1 [12]; EC-specific knockdown of Nrf2)?
Answer: EC-specific knockdown of Nrf2 abolishes the upregulation of HO-1 by ASP treatment

Question: What about the “HO-1 expression (en-face immunofluorescence)” value (HO-1 [12]; OB-24-treated aortas) of the same substance?
Answer: fails to increase HO-1 expression

Question: And the “endothelial HO-1 expression (en-face immunofluorescence)” value (HO-1 [12]; inhibition of Nrf2/ARE binding (ML385))?
Answer: inhibition of Nrf2/ARE binding eliminates the endothelial upregulation of HO-1 by ASP treatment

Question: And the EDRs (C57BL/6 mice aortae; ML385-treated aortas)?
Answer: fails to reverse impairment

Question: What about the EDRs (C57BL/6 mice aortae; endothelial-cell specific Nrf2 knockdown murine aortas) of the same substance?
Answer: fails to reverse the impairment

Question: What about the “acetylcholine-induced EDRs” value (C57BL/6 mice aortae; IL-1β-treated aortas, ex vivo) of the same substance?
Answer: prevents IL-1-induced impairment in acetylcholine-induced EDRs; also recorded: prevents IL-1β-impaired EDRs; also recorded: rescued IL-1β-impairs EDRs

Question: What about the “acetylcholine-induced EDRs” value (C57BL/6 mice aortae; IL-1β-treated, HO-1-inhibited (OB-24) aortas) of the same substance?
Answer: fails to rescue the impairment; also recorded: failed to prevent endothelial dysfunction in HO-1 inhibited aortae

Question: And the ROS generation (ROS; IL-1β, HO-1-inhibited aortas)?
Answer: fails to rescue the impairment (FIG. 2C) or decrease ROS generation

Question: What about the “IL-1β-induced ROS overproduction” value (ROS; ML385-treated aortas) of the same substance?
Answer: fails to reverse impairment (FIG. 4E) or suppress IL-1β-induced ROS overproduction

Question: What about the “IL-1β-induced ROS overexpression (DHE staining)” value (ROS; endothelial Nrf2 knocked down) of the same substance?
Answer: fails to suppress IL-1β-induced ROS overexpression
